Results on 3 compounds are retold here after paper PMC7782499, “Progerinin, an optimized progerin-lamin A binding inhibitor, ameliorates premature senescence phenotypes of Hutchinson-Gilford progeria syndrome” (Communications Biology, 2021).

Data set [1] has as its system HGPS cells. The data set is described as follows: Cell proliferation of HGPS cells (MTT assay, cell counting). The class given is cell-based, human. The following applies: for Cell proliferation (rate): 7 days, normalized to DMSO-treated cells; for Cell proliferation after treatment with SLC-D011, Ave / Cell counting after treatment with chemicals, Ave: average; for Cell proliferation after treatment with SLC-D011 / Cell counting after treatment with chemicals: single replicates. Here is the method: To determine the cellular viability, cells were treated with lonafarnib or SLC-D011 for 2 weeks. For MTT assay, cells were incubated with 0.5 mg/ml of 3-(4,5-dimethythiazol-2-yl)-2,5-diphenyl tetrazolium bromide (MTT) solution for 6 hr at 37 °C. After removing MTT solution, the precipitated materials were dissolved in […] DMSO and quantified by measuring the absorbance at 540 nm.
Fig. S4. Ef fect s of J H4, J H010, and SLC-D011 in ameliorating nuclear deformation of HGPS fibroblasts.
A. JH4, JH010, and SLC-D011 increase population of HGPS cells (n = 3 independent experiment; two-
tailed Student’s t -test), **p<0.001. […]
DAPI indicated DNA. C. Treatment with SLC-D011 (1 µM) for 7 days increased
cell proliferation in three different HGPS cells but not in normal fibroblasts (n = 3 independent experiments;
two-tailed Student’s t-test), **p < 0.001, N.S: not significant. AU, arbitrary units. […]
(Formazan colour is commonly taken as a measure of viable cells.)

Data set [2] relates to HGPS cells. The experiment in a line: Nuclear deformation counting in HGPS cells. The conditions noted are these: for Nuclear deformation (rate): 7 days, normalized to DMSO-treated cells; for Nuclear deformation: AG03198. The class given is cell-based, human. Further details: key to Nuclear deformation (rate): fraction of nuclear-deformed cells, relative to DMSO-treated cells. Here is the method:
Fig. 1 SLC-D011 ameliorates premature aging features of HGPS. A. HEK293 cells were transiently transfected with expression vector encoding wild-type lamin A (WT-LA), lamin A-C661A (LA-C661A), progerin, or progerin-C611A. LA-C661A or progerin-C611A with point mutation in CaaX motif was predicted to be lack of farnesylation, […] that of authentic WT-LA or progerin. GFP-conjugated empty expression vector was used as a negative control. Cells were visualized at 24 h after transfection. B Transient transfection of HEK293 cells with expression vector encoding progerin or […] leads to reduced expression of H3K9me3 (n = 3 independent experiments; two-tailed Student’s t test). C. JH4 derivatives (JH010 and SLC-D011(D011)) inhibit lamin A and progerin interaction. For binding inhibition assay, bead-conjugated lamin A (GST-LA) was incubated with HEK293 cells, transiently transfected with GFP-progerin (PG), and treated with indicated chemicals. Actin was used as a loading control. PPT, co-precipitated materials with recombinant proteins; Sup supernatant. 5 μM of each chemical was used for binding assay. […] H3K9me3 reduction is a well-known marker for premature aged cells. Thus, H3K9me3 expression was evaluated by immunostaining. […] E SLC-D011 obviously suppresses progerin expression. For progerin expression analysis, each chemical was used to treat HGPS cells (AG03198, Coriell Cell Repositories) for 7 days. […] F SLC-D011 reduces the expression of progerin in other HGPS cells (AG11513 and AG11498, Coriell Cell Repositories). Treatment with SLC-D011 (2 μM) for 7 days reduced the expression of progerin and p16/INK4A but induced the expression of H3K9me3. […] G JH4, JH010, and SLC-D011 promote cell proliferation. Cell viability was determined by MTT assay after incubation with chemicals for 7 days (n = 3 independent experiments; two-tailed Student’s t test). H JH4, JH010, and SLC-D011 show similar activity for ameliorating nuclear deformation. After incubation with chemicals for 7 days, cells were stained with progerin and H3K9me3 antibodies (n = 3 independent experiment; two-tailed Student’s t test), **p < 0.001. Data are reported as mean ± SD. “Con” means Dimethyl sulfoxide (DMSO)-treated control. The data are normalized to DMSO-treated cells.
For nuclear deformation cell counting, immunofluorescence staining was performed with lamin A or progerin antibodies. After staining, abnormal nuclear membrane was counted in randomly selected fields and expressed as percentages or actual numbers of total cells counted. Abnormalities of nuclear membrane were determined based on the following: (1) lamin A/C or progerin lining was extruded or engulfed, (2) having at least one bleb, and (3) irregular contour. Counting of cells with nuclear deformation was performed by three independent observers who were blinded to chemical treatment group. To analyze histone H3K9me3 intensity or expression, images were quantified using “color histogram” function of Image J software (National Institute of Health, NIH). Fluorescence intensities were subtracted by background signals.

Values joined by “and” are separate entries in the source; they are usually repeats but may differ in a detail not shown here. Equal entries are not always repeated.

In the case of `CC1(C)Oc2cc3oc(=O)ccc3cc2C[C@@H]1OC/C=C/c1ccccc1` [SLC-D011], the “Cell proliferation (rate)” value in the data set on HGPS cells [1] (AG03198, 2uM) is 1.467 and 1.31 and 1.235 and 1.393 and 1.367 and 1.407; with HGPS cells [1] (AG03198, 2uM, mean) it was 1.363; in the data set on HGPS cells [1] (AG03198, 5uM), 2.067 and 2.103 and 1.735 and 2.25 and 2.2 and 2.259; in the data set on HGPS cells [1] (AG03198, 5uM, mean) it was 2.102. Also, the Cell counting with HGPS cells [1] (AG03198, 0.1μM, Ave) was 13.375; with HGPS cells [1] (AG03198, 0.1μM, individual replicate), 15 and 16 and 14 and 8 and 13 and 12; with HGPS cells [1] (AG03198, 0.2μM, Ave), 12.25; in the data set on HGPS cells [1] (AG03198, 0.2μM, individual replicate), 11 and 14 and 12 and 13 and 16 and 10; in the data set with HGPS cells [1] (AG03198, 0.5μM, Ave), 13.625; in the data set on HGPS cells [1] (AG03198, 0.5μM, individual replicate), 15 and 13 and 17 and 11 and 10 and 12 and 18. Also, the Cell counting in the data set with HGPS cells [1] (AG03198, 1μM, Ave) is 18; with HGPS cells [1] (AG03198, 1μM, individual replicate), 17 and 21 and 26 and 16 and 13. In addition, the “Cell proliferation after treatment with SLC-D011, Ave” value came to 2.85 AU with HGPS cells [1] (AG03198), 3.325 AU in the data set with HGPS cells [1] (AG11498), 2.875 AU in the data set on HGPS cells [1] (AG11513) and 3.975 AU in the data set with HGPS cells [1] (N9). Also, the “Cell proliferation after treatment with SLC-D011” value with HGPS cells [1] (AG03198) is 2.5 AU (2×) and 2.2 AU and 2.7 AU and 3.3 AU and 3.7 AU and 3 AU and 2.9 AU; in the data set on HGPS cells [1] (AG11498), 3.3 AU (2×) and 3.6 AU and 2.9 AU and 3.5 AU and 3.4 AU and 3.9 AU and 2.7 AU; with HGPS cells [1] (AG11513) it was 2 AU (2×) and 2.9 AU and 3.2 AU and 3.3 AU (2×) and 3.8 AU and 2.5 AU; with HGPS cells [1] (N9) it was 3.9 AU and 4.2 AU (2×) and 3.8 AU (2×) and 4 AU and 4.4 AU and 3.5 AU. Moreover, in the data set on HGPS cells [1] (AG11513), the “Cell counting after treatment with chemicals, Ave” value was determined as 29.75. Also, in the data set on HGPS cells [1] (AG11513), the “Cell counting after treatment with chemicals” value is 20 (2×) and 29 and 32 and 37 and 42 and 33 and 25. For the same compound, in the data set on HGPS cells [1] (direct cell counting assay, HGPS cells), the “Concentration promoting cell proliferation and ameliorating nuclear abnormality” value was 100 nM. In addition, the “Nuclear deformation (rate)” value was 0.4839 and 0.6786 and 0.4545 and 0.4706 and 0.5 in the data set with HGPS cells [2] (AG03198, 2uM); 0.5146 in the data set with HGPS cells [2] (AG03198, 2uM, mean); 0.4194 and 0.4286 and 0.303 and 0.2353 and 0.3667 and 0.2941 in the data set on HGPS cells [2] (AG03198, 5uM); 0.3412 in the data set with HGPS cells [2] (AG03198, 5uM, mean). In addition, the Nuclear deformation in the data set with HGPS cells [2] (0.1μM, Ave) was 36.4%; in the data set on HGPS cells [2] (0.1μM, individual replicate), 35% and 37% and 40% and 36% and 34%; in the data set with HGPS cells [2] (0.2μM, Ave) it was 33.2%; in the data set on HGPS cells [2] (0.2μM, individual replicate) it was 33% and 34% and 30% and 36%; with HGPS cells [2] (0.5μM, Ave), 25.8%; in the data set with HGPS cells [2] (0.5μM, individual replicate), 29% and 28% and 27% and 19% and 26%. Besides, the Nuclear deformation is 21.4% in the data set with HGPS cells [2] (1μM, Ave); 23% and 20% and 22% and 19% in the data set with HGPS cells [2] (1μM, individual replicate).

On to `CC1(C)Oc2cc3oc(=O)ccc3cc2CC1OC(=O)C=Cc1cccnc1` (stereo not shown) [JH4], for which the “Cell proliferation (rate)” value in the data set with HGPS cells [1] (AG03198, 2uM) is 1.267 and 1.276 and 1.118 and 1.25 and 1.333 and 1.2963; in the data set with HGPS cells [1] (AG03198, 2uM, mean), 1.257; in the data set on HGPS cells [1] (AG03198, 5uM), 1.833 and 1.759 and 1.647 and 1.964 and 1.667 and 1.926; with HGPS cells [1] (AG03198, 5uM, mean) it was 1.799. Also, the “Cell counting after treatment with chemicals, Ave” value with HGPS cells [1] (AG11513) is reported as 28. Besides, the “Cell counting after treatment with chemicals” value in the data set with HGPS cells [1] (AG11513) was 22 and 29 and 19 and 40 and 32 and 37 and 17 and 28. The “Nuclear deformation (rate)” value in the data set with HGPS cells [2] (AG03198, 2uM) was 0.7742 and 0.8571 and 0.5758 and 0.6176 and 0.8 and 0.6765; in the data set on HGPS cells [2] (AG03198, 2uM, mean), 0.7169; in the data set with HGPS cells [2] (AG03198, 5uM), 0.5161 and 0.5357 and 0.5455 and 0.4706 and 0.5667 and 0.5294; with HGPS cells [2] (AG03198, 5uM, mean), 0.5273.

With `NC(=O)N1CCC(CC(=O)N2CCC([C@H]3c4ncc(Br)cc4CCc4cc(Cl)cc(Br)c43)CC2)CC1` [lonafarnib, reference compound], the Nuclear shape entry with HGPS cells [2] (HGPS cells) was “induced donut-shaped nuclei”.
